Assay results published in US11292801B2, “Calpain modulators and therapeutic uses thereof” (Blade Therapeutics, Inc., priority 2016, dated 2022).

Assays:
Human Calpain 9/NS1 = target: T1, Human Calpain 9/NS1 (Homo sapiens, UniProt O14815); experiment: Biochemical inhibition of calpain 9, continuous fluorescence (FRET substrate) assay; details: mean, read-out: Human Calpain 9/NS1 IC50 (nM)_MEAN
T1 sequence (O14815 1-690): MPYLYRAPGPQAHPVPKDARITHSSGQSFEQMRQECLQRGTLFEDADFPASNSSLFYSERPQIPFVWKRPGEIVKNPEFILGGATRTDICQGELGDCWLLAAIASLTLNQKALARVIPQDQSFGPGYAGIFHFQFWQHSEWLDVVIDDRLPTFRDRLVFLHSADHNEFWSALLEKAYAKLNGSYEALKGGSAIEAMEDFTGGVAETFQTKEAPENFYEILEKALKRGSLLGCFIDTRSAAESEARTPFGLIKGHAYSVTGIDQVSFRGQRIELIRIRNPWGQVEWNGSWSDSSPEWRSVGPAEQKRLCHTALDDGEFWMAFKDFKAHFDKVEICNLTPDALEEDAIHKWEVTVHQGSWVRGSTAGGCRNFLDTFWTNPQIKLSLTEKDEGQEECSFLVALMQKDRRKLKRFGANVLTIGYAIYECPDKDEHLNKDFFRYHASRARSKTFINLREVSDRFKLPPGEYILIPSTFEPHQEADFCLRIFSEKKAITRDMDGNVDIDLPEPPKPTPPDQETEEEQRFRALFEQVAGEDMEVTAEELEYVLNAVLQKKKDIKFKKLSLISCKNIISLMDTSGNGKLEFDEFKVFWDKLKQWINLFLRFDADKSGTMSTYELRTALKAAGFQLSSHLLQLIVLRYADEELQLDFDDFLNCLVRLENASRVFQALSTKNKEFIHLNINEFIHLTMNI
T1 sequence (P04632 1-268 partner): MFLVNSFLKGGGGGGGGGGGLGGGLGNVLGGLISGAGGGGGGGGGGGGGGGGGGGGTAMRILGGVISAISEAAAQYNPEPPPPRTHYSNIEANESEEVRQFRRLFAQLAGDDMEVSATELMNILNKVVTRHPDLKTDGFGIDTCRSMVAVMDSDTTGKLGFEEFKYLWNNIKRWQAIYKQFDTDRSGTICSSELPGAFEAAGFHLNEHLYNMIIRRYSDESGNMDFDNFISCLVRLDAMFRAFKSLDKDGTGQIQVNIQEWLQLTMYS
Procedure, shortened: (§1)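 Continuous FRET assay with 5-FAM/QXL520 peptide substrate in 50 mM Tris pH ~7.5, 100 mM NaCl, 1 mM DTT. Enzyme preincubated with inhibitor at 25C; reaction started with substrate plus CaCl2, read at 490/520 nm for 10 min. Rates from slopes over 1-5 min, IC50 from 4-parameter logistic fit.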

Human Calpain 2/NS1 = target: T2, Human Calpain 2/NS1 (Homo sapiens, UniProt P17655); experiment: Biochemical inhibition of calpain 2, continuous fluorescence (FRET substrate) assay; details: mean, read-out: Human Calpain 2/NS1 IC50 (nM)_MEAN
T2 sequence (P17655 1-700): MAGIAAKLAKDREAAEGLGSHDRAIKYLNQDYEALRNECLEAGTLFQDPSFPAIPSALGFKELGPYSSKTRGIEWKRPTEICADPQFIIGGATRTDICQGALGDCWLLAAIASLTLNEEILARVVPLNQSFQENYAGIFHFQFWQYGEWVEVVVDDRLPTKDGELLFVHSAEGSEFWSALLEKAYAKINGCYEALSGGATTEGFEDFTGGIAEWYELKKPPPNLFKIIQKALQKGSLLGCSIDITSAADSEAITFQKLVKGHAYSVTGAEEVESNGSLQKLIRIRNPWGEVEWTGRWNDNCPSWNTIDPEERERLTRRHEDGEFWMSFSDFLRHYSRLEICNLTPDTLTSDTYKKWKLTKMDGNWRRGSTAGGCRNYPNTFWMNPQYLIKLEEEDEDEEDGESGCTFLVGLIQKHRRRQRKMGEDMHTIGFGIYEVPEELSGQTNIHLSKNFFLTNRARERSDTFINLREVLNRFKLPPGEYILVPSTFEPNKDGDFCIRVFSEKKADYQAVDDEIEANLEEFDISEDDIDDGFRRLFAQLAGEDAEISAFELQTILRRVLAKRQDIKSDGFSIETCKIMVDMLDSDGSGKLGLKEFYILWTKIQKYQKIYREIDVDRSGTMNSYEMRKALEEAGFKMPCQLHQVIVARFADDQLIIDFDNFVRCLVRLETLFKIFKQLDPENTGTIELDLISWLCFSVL
T2 sequence (P04632 1-268 partner): T1 sequence (P04632 1-268 partner)
Procedure, shortened: as §1

Human Calpain 1/NS1 = target: T3, Human Calpain 1/NS1 (Homo sapiens, UniProt P07384); experiment: Biochemical inhibition of calpain 1, continuous fluorescence (FRET substrate) assay; details: mean, read-out: Human Calpain 1/NS1 IC50 (nM)_MEAN
T3 sequence (P07384 1-714): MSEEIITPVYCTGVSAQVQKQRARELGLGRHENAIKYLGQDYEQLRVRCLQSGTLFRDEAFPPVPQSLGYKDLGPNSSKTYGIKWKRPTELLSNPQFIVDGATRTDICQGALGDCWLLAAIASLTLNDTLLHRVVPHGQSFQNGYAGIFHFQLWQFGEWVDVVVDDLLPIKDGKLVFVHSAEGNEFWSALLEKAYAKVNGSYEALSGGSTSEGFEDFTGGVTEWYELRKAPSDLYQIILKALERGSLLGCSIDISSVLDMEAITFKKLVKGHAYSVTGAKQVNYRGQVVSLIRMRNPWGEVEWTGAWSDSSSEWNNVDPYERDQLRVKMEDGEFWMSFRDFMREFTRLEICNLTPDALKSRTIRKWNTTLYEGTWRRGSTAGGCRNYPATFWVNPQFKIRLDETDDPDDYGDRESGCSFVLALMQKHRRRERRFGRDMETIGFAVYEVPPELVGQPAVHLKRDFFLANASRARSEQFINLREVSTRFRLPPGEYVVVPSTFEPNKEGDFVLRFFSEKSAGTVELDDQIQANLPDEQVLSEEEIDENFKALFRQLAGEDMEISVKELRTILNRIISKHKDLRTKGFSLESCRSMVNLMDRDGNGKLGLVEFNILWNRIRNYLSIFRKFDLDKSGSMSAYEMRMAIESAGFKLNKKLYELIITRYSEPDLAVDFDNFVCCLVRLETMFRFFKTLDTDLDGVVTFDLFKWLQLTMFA
T3 sequence (P04632 1-268 partner): T1 sequence (P04632 1-268 partner)
Procedure, shortened: as §1

IC50 (Human Calpain 9/NS1) [nM]	IC50 (Human Calpain 2/NS1) [nM]	IC50 (Human Calpain 1/NS1) [nM]	SMILES
3000 to 10000	> 10000	> 10000	O=C[C@@H]1C/C=C/COCCOCc2ccccc2C(=O)N1 [Compound 2, (S,E)-12-Oxo-1,3,4,6,9,10,11,12-octahydrobenzo[f][1,4]dioxa[9]azacyclotetradecine-10-carbaldehyde]
< 3000	3000 to 10000	> 10000	O=C(NCc1cccc(F)c1)C(=O)C1CCCCOCCOCc2ccccc2C(=O)N1 (stereo not drawn) [Compound 106, N-(3-fluorobenzyl)-2-oxo-2-(12-oxo-1,3,4,6,7,8,9,10,11,12-decahydrobenzo[f][1,4]dioxa[9]azacyclotetradecin-10-yl)acetamide]
< 3000	< 3000	< 3000	CCNC(=O)C(=O)[C@@H]1Cc2ccc(cc2)OC/C=C/COc2cccc(c2)-c2ccn(n2)-c2ncccc2C(=O)N1 [Compound 65, N-ethyl-2-oxo-2-((2^2E,6S,11E)-4-oxo-2^1H-9,14-dioxa-5-aza-3(2,3)-pyridina-2(3,1)-pyrazola-1(1,3),8(1,4)-dibenzenacyclotetradecaphan-11-en-6-yl)acetamide]
> 10000	> 10000	> 10000	CCNC(=O)C(=O)[C@@H]1CCCCCCCCc2ccccc2C(=O)N1 [Compound 25, (S)—N-ethyl-2-oxo-2-(1-oxo-2,3,4,5,6,7,8,9,10,11-decahydro-1h-benzo[c][1]aza-cyclotridecin-3-yl)acetamide]
< 3000	< 3000	< 3000	O=C[C@@H]1CCCCCOc2ccnc(c2)-c2ccccc2C(=O)N1 [Compound 149, (S)-3-oxo-11-oxa-4-aza-1(2,4)-pyridina-2(1,2)-benzenacycloundecaphane-5-carbaldehyde]
< 3000	3000 to 10000	> 10000	O=C(NCCc1ccccc1)C(=O)C1CCCCOCCOCc2ccccc2C(=O)N1 (stereo not drawn) [Compound 104, 2-Oxo-2-(12-oxo-1,3,4,6,7,8,9,10,11,12-decahydrobenzo[f][1,4]dioxa[9]aza-cyclotetradecin-10-yl)-N-phenethylacetamide]
< 3000	< 3000	3000 to 10000	O=C[C@@H]1CCCCCCCCc2ccccc2C(=O)N1 [Compound 15, (S)-1-Oxo-2,3,4,5,6,7,8,9,10,11-decahydro-1h-benzo[c][1]aza-cyclotridecine-3-carbaldehyde]
< 3000	3000 to 10000	> 10000	O=C(NCc1ccccc1)C(=O)[C@@H]1C/C=C/COCCOCc2ccccc2C(=O)N1 [Compound 4, (S,E)-N-benzyl-2-oxo-2-(12-oxo-1,3,4,6,9,10,11,12-octahydrobenzo[f][1,4]dioxa[9]azacyclotetradecin-10-yl)acetamide]
< 3000	< 3000	3000 to 10000	O=C[C@@H]1CC=CCOCCCOCc2ccccc2C(=O)N1 [Compound 11, (S)-13-Oxo-1,4,5,7,10,11,12,13-octahydro-3h-benzo[g][1,5]dioxa[10]aza-cyclopentadecine-11-carbaldehyde]
< 3000	3000 to 10000	> 10000	CC(C)CCNC(=O)C(=O)C1CCCCOCCOCc2ccccc2C(=O)N1 (stereo not drawn) [Compound 90, N-isopentyl-2-oxo-2-(12-oxo-1,3,4,6,7,8,9,10,11,12-decahydrobenzo[f][1,4]dioxa[9]azacyclotetradecin-10-yl)acetamide]
> 10000	> 10000	> 10000	CCNC(=O)C(=O)[C@@H]1C/C=C/CCCCCCCc2ccccc2C(=O)N1 [Compound 33, (S,E)-N-ethyl-2-oxo-2-(1-oxo-2,3,4,7,8,9,10,11,12,13-decahydro-1h-benzo[c][1]azacyclopentadecin-3-yl)acetamide]
< 3000	< 3000	3000 to 10000	O=C[C@@H]1CCCCCCCOc2ccccc2C(=O)N1 [Compound 6, (S)-11-Oxo-2,3,4,5,6,7,8,9,10,11-decahydrobenzo[b][1]oxa[5]azacyclotridecine-9-carbaldehyde]
> 10000	> 10000	> 10000	CCNC(=O)C(=O)[C@@H]1CCCCCCCCCCc2ccccc2C(=O)N1 [Compound 34, (S)—N-ethyl-2-oxo-2-(1-oxo-2,3,4,5,6,7,8,9,10,11,12,13-dodecahydro-1h-benzo[c][1]azacyclopentadecin-3-yl)acetamide]
< 3000	< 3000	< 3000	CCNC(=O)C(=O)[C@@H]1Cc2ccc(cc2)OCCCCOc2cccc(c2)-c2ccn(n2)-c2ncccc2C(=O)N1 [Compound 45, N-ethyl-2-oxo-2-((6S,E)-4-oxo-2^1H-9,14-dioxa-5-aza-3(2,3)-pyridina-2(3,1)-pyrazola-1(1,3),8(1,4)-dibenzenacyclotetradecaphane-6-yl)acetamide]
< 3000	< 3000	> 10000	O=C[C@@H]1C/C=C\COCCOCc2ccccc2C(=O)N1 [Compound 1, (S,Z)-12-Oxo-1,3,4,6,9,10,11,12-octahydrobenzo[f][1,4]dioxa[9]azacyclo-tetradecine-10-carbaldehyde]
> 10000	> 10000	> 10000	O=C(NC1(c2cccnc2)CC1)C(=O)C1CCCCOCCOCc2ccccc2C(=O)N1 (stereo not drawn) [Compound 125, 2-Oxo-2-(12-oxo-1,3,4,6,7,8,9,10,11,12-decahydrobenzo[f][1,4]dioxa[9]aza-cyclotetradecin-10-yl)-N-(1-(pyridin-3-yl)cyclopropyl)acetamide]
> 10000	> 10000	> 10000	CC(C)NC(=O)C(=O)[C@@H]1C/C=C/COCCOCc2ccccc2C(=O)N1 [Compound 62, (S,E)-N-isopropyl-2-oxo-2-(12-oxo-1,3,4,6,9,10,11,12-octahydrobenzo[f][1,4]dioxa[9]azacyclotetradecin-10-yl)acetamide]
3000 to 10000	> 10000	> 10000	O=C(NCc1ccccc1)C(=O)[C@@H]1CC=CCCCCOc2ccccc2C(=O)N1 [Compound 7, (S)—N-benzyl-2-oxo-2-(11-oxo-2,3,4,5,8,9,10,11-octahydrobenzo[b][1]oxa[5]azacyclotridecin-9-yl)acetamide]
